Experimental data as given in ChEMBL document CHEMBL4011590, “Structure-activity relationship studies on 3,5-dinitrophenyl tetrazoles as antitubercular agents” (Eur J Med Chem, 2017).

Assays:
Klebsiella pneumoniae [1] = assay: Antibacterial activity against extended spectrum beta-lactamase producing Klebsiella pneumoniae HK14368/08 after 24 hrs by broth microdilution method; assay type: functional; conditions: HK14368/08, 24 h
Candida albicans [2] = assay: Antifungal activity against Candida albicans ATCC 44859 after 48 hrs by broth microdilution method; assay type: functional; conditions: ATCC 44859, 48 h
Mycobacterium avium [3] = assay: Antimycobacterial activity against Mycobacterium avium CNCTC My 330/80 after 21 days by micromethod; assay type: functional; conditions: CNCTC My 330/80, 504 h
Enterococcus sp. [4] = assay: Antibacterial activity against Enterococcus sp. HK14365/08 after 24 hrs by broth microdilution method; assay type: functional; conditions: HK14365/08, 24 h
Trichosporon asahii [5] = assay: Antifungal activity against Trichosporon asahii 1188 after 48 hrs by broth microdilution method; assay type: functional; conditions: Trichosporon asahii, 1188, 48 h
Klebsiella pneumoniae [6] = assay: Antibacterial activity against Klebsiella pneumoniae HK11750/08 after 48 hrs by broth microdilution method; assay type: functional; conditions: HK11750/08, 48 h
Candida albicans [7] = assay: Antifungal activity against Candida albicans ATCC 44859 after 24 hrs by broth microdilution method; assay type: functional; conditions: ATCC 44859, 24 h
Candida tropicalis [8] = assay: Antifungal activity against Candida tropicalis 156 after 48 hrs by broth microdilution method; assay type: functional; conditions: Candida tropicalis, 156, 48 h
[9] = tested on: Trichophyton mentagrophytes; assay: Antifungal activity against Trichophyton mentagrophytes 445 after 72 hrs by broth microdilution method; assay type: functional; conditions: Trichophyton mentagrophytes, 445, 72 h
Aspergillus fumigatus [10] = assay: Antifungal activity against Aspergillus fumigatus 231 after 24 hrs by broth microdilution method; assay type: functional; conditions: Aspergillus fumigatus, 231, 24 h
Mycobacterium kansasii [11] = assay: Antimycobacterial activity against Mycobacterium kansasii isolate 6509/96 after 21 days by micromethod; assay type: functional; conditions: isolate 6509/96, 504 h
[12] = tested on: Mycobacterium tuberculosis; assay: Antimycobacterial activity against Mycobacterium tuberculosis H37Rv CNCTC My 331/88 after 21 days by micromethod; assay type: functional; conditions: H37Rv CNCTC My 331/88, 504 h
Lichtheimia corymbifera [13] = assay: Antifungal activity against Absidia corymbifera 272 after 24 hrs by broth microdilution method; assay type: functional; conditions: Lichtheimia corymbifera, 272, 24 h
Pseudomonas aeruginosa [14] = assay: Antibacterial activity against Pseudomonas aeruginosa ATCC 9027 after 48 hrs by broth microdilution method; assay type: functional; conditions: ATCC 9027, 48 h
Staphylococcus aureus [15] = assay: Antibacterial activity against Staphylococcus aureus ATCC 6538 after 24 hrs by broth microdilution method; assay type: functional; conditions: ATCC 6538, 24 h
Staphylococcus aureus [16] = assay: Antibacterial activity against Staphylococcus aureus ATCC 6538 after 48 hrs by broth microdilution method; assay type: functional; conditions: ATCC 6538, 48 h
[17] = tested on: Staphylococcus epidermidis; assay: Antibacterial activity against Staphylococcus epidermidis HK6966/08 after 24 hrs by broth microdilution method; assay type: functional; conditions: HK6966/08, 24 h
Nakaseomyces glabratus [18] = assay: Antifungal activity against Candida glabrata 20/I after 48 hrs by broth microdilution method; assay type: functional
Mycobacterium kansasii [19] = assay: Antimycobacterial activity against Mycobacterium kansasii isolate 6509/96 after 14 days by micromethod; assay type: functional; conditions: isolate 6509/96, 336 h
Nakaseomyces glabratus [20] = assay: Antifungal activity against Candida glabrata 20/I after 24 hrs by broth microdilution method; assay type: functional
[21] = tested on: Trichophyton mentagrophytes; assay: Antifungal activity against Trichophyton mentagrophytes 445 after 120 hrs by broth microdilution method; assay type: functional; conditions: Trichophyton mentagrophytes, 445, 120 h
Candida tropicalis [22] = assay: Antifungal activity against Candida tropicalis 156 after 24 hrs by broth microdilution method; assay type: functional; conditions: Candida tropicalis, 156, 24 h
Aspergillus fumigatus [23] = assay: Antifungal activity against Aspergillus fumigatus 231 after 48 hrs by broth microdilution method; assay type: functional; conditions: Aspergillus fumigatus, 231, 48 h
[24] = tested on: Mycobacterium tuberculosis; assay: Antimycobacterial activity against Mycobacterium tuberculosis H37Rv CNCTC My 331/88 after 14 days by micromethod; assay type: functional; conditions: H37Rv CNCTC My 331/88, 336 h
Mycobacterium avium [25] = assay: Antimycobacterial activity against Mycobacterium avium CNCTC My 330/80 after 14 days by micromethod; assay type: functional; conditions: CNCTC My 330/80, 336 h
Pseudomonas aeruginosa [26] = assay: Antibacterial activity against Pseudomonas aeruginosa ATCC 9027 after 24 hrs by broth microdilution method; assay type: functional; conditions: ATCC 9027, 24 h
Staphylococcus aureus [27] = assay: Antibacterial activity against methicillin-resistant Staphylococcus aureus HK5996/08 after 24 hrs by broth microdilution method; assay type: functional; conditions: HK5996/08, 24 h
Trichosporon asahii [28] = assay: Antifungal activity against Trichosporon asahii 1188 after 24 hrs by broth microdilution method; assay type: functional; conditions: Trichosporon asahii, 1188, 24 h
Escherichia coli [29] = assay: Antibacterial activity against Escherichia coli ATCC 8739 after 48 hrs by broth microdilution method; assay type: functional; conditions: ATCC 8739, 48 h
Escherichia coli [30] = assay: Antibacterial activity against Escherichia coli ATCC 8739 after 24 hrs by broth microdilution method; assay type: functional; conditions: ATCC 8739, 24 h
Mycobacterium kansasii [31] = assay: Antimycobacterial activity against Mycobacterium kansasii CNCTC My 235/80 after 14 days by micromethod; assay type: functional; conditions: CNCTC My 235/80, 336 h
Klebsiella pneumoniae [32] = assay: Antibacterial activity against Klebsiella pneumoniae HK11750/08 after 24 hrs by broth microdilution method; assay type: functional; conditions: HK11750/08, 24 h
Klebsiella pneumoniae [33] = assay: Antibacterial activity against extended spectrum beta-lactamase producing Klebsiella pneumoniae HK14368/08 after 48 hrs by broth microdilution method; assay type: functional; conditions: HK14368/08, 48 h
Lichtheimia corymbifera [34] = assay: Antifungal activity against Absidia corymbifera 272 after 48 hrs by broth microdilution method; assay type: functional; conditions: Lichtheimia corymbifera, 272, 48 h
Mycobacterium kansasii [35] = assay: Antimycobacterial activity against Mycobacterium kansasii CNCTC My 235/80 after 21 days by micromethod; assay type: functional; conditions: CNCTC My 235/80, 504 h
Staphylococcus aureus [36] = assay: Antibacterial activity against methicillin-resistant Staphylococcus aureus HK5996/08 after 48 hrs by broth microdilution method; assay type: functional; conditions: HK5996/08, 48 h
Pichia kudriavzevii [37] = assay: Antifungal activity against Candida krusei E28 after 24 hrs by broth microdilution method; assay type: functional; conditions: E28, 24 h
Mycobacterium kansasii [38] = assay: Antimycobacterial activity against Mycobacterium kansasii isolate 6509/96 after 7 days by micromethod; assay type: functional; conditions: isolate 6509/96, 168 h
CHO-K1 = assay: Cytotoxicity against CHOK1 cells after 24 hrs by MTT assay; assay type: cell-based; conditions: Cricetulus griseus, CHO-K1, 24 h
Mycobacterium kansasii [39] = assay: Antimycobacterial activity against Mycobacterium kansasii CNCTC My 235/80 after 7 days by micromethod; assay type: functional; conditions: CNCTC My 235/80, 168 h
[40] = tested on: Staphylococcus epidermidis; assay: Antibacterial activity against Staphylococcus epidermidis HK6966/08 after 48 hrs by broth microdilution method; assay type: functional; conditions: HK6966/08, 48 h
Pichia kudriavzevii [41] = assay: Antifungal activity against Candida krusei E28 after 48 hrs by broth microdilution method; assay type: functional; conditions: E28, 48 h
Enterococcus sp. [42] = assay: Antibacterial activity against Enterococcus sp. HK14365/08 after 48 hrs by broth microdilution method; assay type: functional; conditions: HK14365/08, 48 h

O=[N+]([O-])c1cc(-c2nnn(Cc3ccc(F)cc3)n2)cc([N+](=O)[O-])c1
2 µM: MIC99 (Mycobacterium kansasii [19]) | MIC99 (Mycobacterium kansasii [31]) | MIC99 (Mycobacterium kansasii [35])
0.25 µM: MIC99 [24]
> 500 µM: MIC (Klebsiella pneumoniae [1]) | MIC (Candida albicans [2]) | MIC (Enterococcus sp. [4]) | MIC (Trichosporon asahii [5]) | MIC (Klebsiella pneumoniae [6]) | MIC (Candida albicans [7]) | MIC (Candida tropicalis [8]) | MIC [9] | MIC (Aspergillus fumigatus [10]) | MIC (Lichtheimia corymbifera [13]) | MIC (Pseudomonas aeruginosa [14]) | MIC (Staphylococcus aureus [15]) | MIC (Staphylococcus aureus [16]) | MIC [17] | MIC (Nakaseomyces glabratus [18]) | MIC (Nakaseomyces glabratus [20]) | MIC [21] | MIC (Candida tropicalis [22]) | MIC (Aspergillus fumigatus [23]) | MIC (Pseudomonas aeruginosa [26]) | MIC (Staphylococcus aureus [27]) | MIC (Trichosporon asahii [28]) | MIC (Escherichia coli [29]) | MIC (Escherichia coli [30]) | MIC (Klebsiella pneumoniae [32]) | MIC (Klebsiella pneumoniae [33]) | MIC (Lichtheimia corymbifera [34]) | MIC (Staphylococcus aureus [36]) | MIC (Pichia kudriavzevii [37]) | MIC [40] | MIC (Pichia kudriavzevii [41]) | MIC (Enterococcus sp. [42])
1 µM: MIC99 (Mycobacterium kansasii [38]) | MIC99 (Mycobacterium kansasii [39])
4 µM: MIC99 (Mycobacterium kansasii [11])
0.5 µM: MIC99 [12]
35 µM: IC50 (CHO-K1)
8 µM: MIC99 (Mycobacterium avium [3]) | MIC99 (Mycobacterium avium [25])

O=[N+]([O-])c1cc(-c2nnnn2Cc2ccccc2)cc([N+](=O)[O-])c1
32 µM: MIC99 (Mycobacterium avium [3])
4 µM: MIC99 (Mycobacterium kansasii [11]) | MIC99 (Mycobacterium kansasii [19])
> 500 µM: MIC (Aspergillus fumigatus [10]) | MIC (Aspergillus fumigatus [23])
8 µM: MIC99 (Mycobacterium kansasii [31]) | MIC99 (Mycobacterium kansasii [35]) | MIC99 (Mycobacterium kansasii [39])
250 µM: MIC (Klebsiella pneumoniae [1]) | MIC (Trichosporon asahii [5]) | MIC (Candida tropicalis [8]) | MIC (Nakaseomyces glabratus [18]) | MIC (Nakaseomyces glabratus [20]) | MIC (Candida tropicalis [22]) | MIC (Trichosporon asahii [28]) | MIC (Klebsiella pneumoniae [32]) | MIC (Pichia kudriavzevii [37]) | MIC (Pichia kudriavzevii [41])
500 µM: MIC [9] | MIC (Lichtheimia corymbifera [13]) | MIC (Pseudomonas aeruginosa [14]) | MIC [21] | MIC (Pseudomonas aeruginosa [26]) | MIC (Lichtheimia corymbifera [34])
62.5 µM: MIC (Candida albicans [2]) | MIC (Enterococcus sp. [4]) | MIC (Candida albicans [7]) | MIC (Staphylococcus aureus [15]) | MIC (Staphylococcus aureus [16]) | MIC [17] | MIC (Escherichia coli [29]) | MIC [40] | MIC (Enterococcus sp. [42])
31.2 µM: MIC (Staphylococcus aureus [27])
125 µM: MIC (Klebsiella pneumoniae [6]) | MIC (Escherichia coli [30]) | MIC (Klebsiella pneumoniae [33])
16 µM: MIC99 (Mycobacterium avium [25])
2 µM: MIC99 [12] | MIC99 [24] | MIC99 (Mycobacterium kansasii [38])
18 µM: IC50 (CHO-K1)
15.6 µM: MIC (Staphylococcus aureus [36])
